Data set [1] relates to DIO C57BL/6 mice. Put plainly: Spontaneous locomotor activity in DIO C57BL/6 mice. The format is in vivo. The settings on record: 3 hours after administration, measured for 7 hours, vs vehicle and control groups. Here is the method: β-lapachone was administered to DIO C57BL/6 mice, and 3 hours later, spontaneous locomotor activity was measured using Versa MAX Activity Monitors & Analyzer (AccuSan Instruments, Columbus, Ohio). The monitor used to measure motion of animals was a 41 cm×41 cm Plexiglas chamber (height: 30 cm) equipped with infrared rays at intervals of 2.5 cm along the x- and y-axes, respectively, whereby 16 scanning lines are respectively arranged on front/rear and right/left sides of the chamber. In order to distinguish between spontaneous locomotor and stereotypic/grooming behavior, animal activity was measured by taking continuous interference of two different scanning lines caused by mice as an effective determination standard. A β-lapachone-administered group, a vehicle-administered group and a control group were respectively placed in each measuring apparatus, and activity and motion of animals were measured for 7 hours. For acclimation of animal to new environment, mice were placed in the apparatus 2 hours prior to measurement.

For another data set, the system named is AMPK. Put plainly: Activation of AMPK in liver and gonadal adipose tissues of C57BL/6 mice. The format is in vivo. The settings on record: 5 mg/kg via tail veins, 2 hours and 4 hours. Here is the method: A vehicle and 5 mg/kg of β-lapachone were administered via tail veins to C57BL/6 mice for 2 hours and 4 hours, respectively. Liver and gonadal adipose tissues were removed and activity of AMPK kinase was assayed. A degree of activation was expressed as a CPM value of radioisotopes. Using the same manner, HepG2 cells, a cell line derived from human liver, were treated with 10 μM β-lapachone for 30 min, and then an assay for AMPK kinase activity was carried out.

In data set [2] the test system is leptin receptor-deficient (ob/ob) mice. Put plainly: Changes in leptin receptor-deficient (ob/ob) mice by administration of β-lapachone. The format is in vivo. Here is the method: (§1) This is because fat degradation is facilitated and therefore sufficient amounts of energy are generated, despite similar dietary intake. […] In order to examine fat accumulation in the liver tissue, animals were laparotomized 56 days after administration of β-lapachone, and H&E staining (FIG. 21C) and EM examination (FIG. 21D) were performed on the liver tissue.

For data set [3], the system named is leptin-deficient (ob/ob) mice. The data set is described as above. The format is in vivo. The settings on record: 56 days, vs control group. Here is the method:
as §1

The next data set has as its system Sprague-Dawley rats. Put plainly: Acute toxicity test, oral administration. It counts as in vivo. The settings on record: oral, 50, 100 and 200 mg/kg, observed for 2 weeks.
Data set [4] has as its system transcripts of Sirtuin (SIRT) genes. Put plainly: Expression of SIRT-related transcripts in DIO mice. It counts as in vivo, C57BL/6 mice. The settings on record: 50 mg/kg daily oral, gonadal adipose tissues, days 7, 28 and 56. Here is the method:
β-lapachone was administered daily to diet-induced obesity (DIO) mice at a dose of 50 mg/kg via an oral route, and levels of transcripts of Sirtuin (SIRT) (36,37) genes in gonadal adipose tissues were measured on days 7, 28 and 56 of administration, respectively, using real-time quantitative PCR. Referring to SIRT-related transcripts shown in FIG. 12, there are known 7 species of transcripts in humans.

Data set [5] has as its system mRNAs of PGC1α, NRF1, mtTFA, COX 4 and 7. Put plainly: Gene expression of proteins involved in mitochondrial biogenesis in DIO mice. It counts as in vivo, C57BL/6 mice. The settings on record: 50 mg/kg daily oral, liver and gonadal adipose tissues, vs control group. Here is the method:
β-lapachone was administered daily to diet-induced obesity (DIO) mice at a dose of 50 mg/kg via an oral route, and levels of mRNAs of peroxisome proliferator-activated receptor coactivator alpha 1 (PGC1α) (23,24), nuclear respiratory factor 1 (NRF1) (25-27), mitochondrial transcription factor (mtTFA) (25-27), and cytochrome c oxidase (COX) 4 and 7 (28,29) in the liver and gonadal adipose tissues were confirmed by real-time quantitative PCR. Proteins shown in FIG. 10 are representative enzymes responsible for regulation of biogenesis of mitochondria which plays a critical role in biosynthesis of energy in cells, and are also known to be involved in regulation of various physiological events.

For data set [6], the system named is DIO C57BL/6 mice. Put plainly: Respiratory Quotient (RQ), indirect calorimeter. The format is in vivo. The settings on record: measured for 7 hours, vs vehicle-administered group and control group. Here is the method: FIG. 24 is a graph showing effects of β-lapachone on Respiratory Quotient (RQ) after administration of β-lapachone to DIO C57BL/6 mice.
This Example was intended to examine effects of β-lapachone on fat metabolism via measurement of Respiratory Quotient (RQ). Oxygen consumption and carbon dioxide production were measured using an Oxyscan open-circuit indirect calorimeter (AccuScan Instruments, Columbus, Ohio). This apparatus consisted of enclosed acrylic chambers (21×21×21 cm). Fresh air was drawn into each chamber at a rate of 1500 ml/min and then O2 and CO2 were allowed to pass through detectors. The concentrations of the gases were recorded in ml/kg body weight/min. RQ was calculated as the volume of CO2 produced (VCO2) divided by the volume of O2 consumed (VO2). A β-lapachone-administered group, a vehicle-administered group and a control group were placed in each apparatus, and RQ was measured for 7 hours. For acclimation of animal to new environment, mice were placed in the apparatus 2 hours prior to measurement.

The subject of data set [7] is DIO C57BL/6 mice. Put plainly: Physical endurance (swimming test) in DIO C57BL/6 mice. The format is in vivo. The settings on record: single administration, 3 hours later, vs control group. Here is the method: This Example was intended to measure difference in physical endurance of mice through a swimming test. For this purpose, water was placed in a cylindrical trough having a diameter of 9.5 cm and height of 25 cm, and β-lapachone was administered to DIO C57BL/6 mice. 3 hours later, a sample-administered group and a control group were placed simultaneously into each cylindrical trough for measurement, and physical endurance of each group was compared.

Regarding `CC1(C)CCC2=C(O1)c1ccccc1C(=O)C2=O` [Compound 1, β-Lapachone], the spontaneous locomotor activity entry with DIO C57BL/6 mice [1] was “significant difference in motion and locomotor activity”. For the same molecule, in the data set with AMPK, the “AMPK activity in the liver and gonadal adipose tissues” value is “increased AMPK activity”. In data set [2] (150 or 200 mg/kg daily oral, 56 days), the dietary intake/body weight entry is “notably decreased around at 10 days of administration”. Also, the body weight entry in [2] (150 or 200 mg/kg daily oral, 56 days, vs control group) is recorded as “continuous weight loss for 56 days”. Also, the “H&E staining on liver tissue: fat vacuoles” value in data set [2] (56 days after administration, vs control group) is reported as “almost all fat vacuoles have disappeared”. Further, in data set [2] (56 days, vs control group), the “EM examination on liver tissues: mitochondrial numbers” value was “significant increases in mitochondrial numbers”, the “EM examination on muscle tissue of limbs: mitochondrial shape” value is recorded as “recovery of normal mitochondrial shape” and the “EM examination on muscle tissue of limbs: numbers of mitochondria” value is recorded as “significant increases in numbers of mitochondrial”. Also, the “EM examination on liver tissues: fat vacuoles and glycogen stores” value in data set [3] was “remarkably decreased fat vacuoles and glycogen stores”. Moreover, the mortality result in the data set on Sprague-Dawley rats was “none of the animals died”. Also, in data set [4], the SIRT2 transcript level entry is on record as “did not exhibit any noticeable difference”, the SIRT3 transcript level result is on record as “significantly increased”, the SIRT5 transcript level result is “did not exhibit any noticeable difference” and the SIRT6 transcript level result is “significantly increased”. Further, in data set [4], the SIRT7 transcript level entry is “did not exhibit any noticeable difference” and the SITR1 transcript level result is given as “significantly increased”. In [5], the “COX 4 mRNA level” value is “increased levels of mRNAs”, the “COX 7 mRNA level” value was “increased levels of mRNAs”, the “NRF1 mRNA level” value is “increased levels of mRNAs” and the “PGC1α mRNA level” value was “increased levels of mRNAs”. The “mtTFA mRNA level” value in [5] is given as “increased levels of mRNAs”. For the same molecule, the “Respiratory Quotient (RQ)” value in the data set on DIO C57BL/6 mice [6] was “significant difference in a RQ value”. The swimming duration entry in the data set on DIO C57BL/6 mice [7] is “more than two-fold swimming duration”.

Source of the values: patent publication US9066922B2, “Pharmaceutical composition for the treatment or prevention of diseases involving obesity, diabetes, metabolic syndrome, neuro-degenerative diseases and mitochondria dysfunction diseases” (MD BIOALPHA CO., LTD., priority 2005, dated 2015).
